Measurements: ChEMBL document CHEMBL6078667, “Synthesis, Biological Evaluation, and Mechanistic Insights of Rubrolide Analogues as Antitumor Agents” (J Nat Prod, 2024)

Key:
U-87 MG [1] = assay: Cytotoxicity against human U-87 MG cells assessed as survival rate at 10 uM measured after 72 hrs by MTT assay relative to control; assay type: functional, U-87MG ATCC; conditions: read-out: Survival
MCF7 [2] = assay: Cytotoxicity against human MCF7 cells assessed as survival rate at 10 uM measured after 72 hrs by MTT assay relative to control; assay type: functional; conditions: read-out: Survival
HCT-116 [3] = assay: Cytotoxicity against human HCT-116 cells assessed as survival rate at 10 uM measured after 72 hrs by MTT assay relative to control; assay type: functional; conditions: read-out: Survival
U-87 MG [4] = assay: Cytotoxicity against human U-87 MG cells assessed as inhibition of cell growth incubated for 72 hrs by MTT assay; assay type: functional, cell-based, U-87MG ATCC
HeLa [5] = assay: Cytotoxicity against human HeLa cells assessed as inhibition of cell growth incubated for 72 hrs by MTT assay; assay type: functional, cell-based
[6] = Cytotoxicity against HHL-5 cells assessed as inhibition of cell growth incubated for 72 hrs by MTT assay; assay type: toxicity, cell-based; conditions: human
MKN-45 [7] = assay: Cytotoxicity against human MKN-45 cells assessed as inhibition of cell growth incubated for 72 hrs by MTT assay; assay type: functional, cell-based; conditions: MKN-45, 72 h
HCT-116 [8] = assay: Cytotoxicity against human HCT-116 cells assessed as inhibition of cell growth incubated for 72 hrs by MTT assay; assay type: functional, cell-based; conditions: HCT-116, 72 h
MGC-803 [9] = assay: Cytotoxicity against human MGC-803 cells assessed as inhibition of cell growth incubated for 72 hrs by MTT assay; assay type: functional, cell-based; conditions: MGC-803, 72 h
U-87 MG [10] = assay: Cytotoxicity against human U-87 MG cells assessed as inhibition of cell growth at 10 uM measured after 72 hrs by MTT assay relative to control; assay type: functional, U-87MG ATCC
MGC-803 [11] = assay: Cytotoxicity against human MGC-803 cells assessed as inhibition of cell growth at 10 uM measured after 72 hrs by MTT assay relative to control; assay type: functional
HeLa [12] = assay: Cytotoxicity against human HeLa cells assessed as inhibition of cell growth at 10 uM measured after 72 hrs by MTT assay relative to control; assay type: functional
MCF7 [13] = assay: Cytotoxicity against human MCF7 cells assessed as inhibition of cell growth incubated for 72 hrs by MTT assay; assay type: functional, cell-based; conditions: MCF7, 72 h
MKN-45 [14] = assay: Cytotoxicity against human MKN-45 cells assessed as inhibition of cell growth at 10 uM measured after 72 hrs by MTT assay relative to control; assay type: functional
MCF7 [15] = assay: Cytotoxicity against human MCF7 cells assessed as inhibition of cell growth at 10 uM measured after 72 hrs by MTT assay relative to control; assay type: functional
HCT-116 [16] = assay: Cytotoxicity against human HCT-116 cells assessed as inhibition of cell growth at 10 uM measured after 72 hrs by MTT assay relative to control; assay type: functional

SMILES | viability at 10 µM (U-87 MG [1]) [%] | viability at 10 µM (MCF7 [2]) [%] | viability at 10 µM (HCT-116 [3]) [%] | also measured
COc1ccc(C2=CC(=O)O/C2=C\c2ccc(N(C)C)cc2)cc1 | 101 | 92.2 | 87.2 | 
COc1cccc2c1C(=O)c1c(O)c3c(c(O)c1C2=O)C[C@@](O)(C(=O)CO)C[C@@H]3O[C@H]1C[C@H](N)[C@H](O)[C@H](C)O1 [DOXORUBICIN] | 20.3 | 5.8 | 12.2 | IC50 (U-87 MG [4]): 0.3 µM; IC50 (HeLa [5]): 0.2 µM; IC50 at 72 h [6]: 7.2 µM; IC50 (MKN-45 [7]): 0.2 µM; IC50 (HCT-116 [8]): 0.2 µM; IC50 (MGC-803 [9]): 0.3 µM
COc1ccc(C2=CC(=O)O/C2=C\c2ccccc2)cc1 | 52 | 29.7 | 32.5 | IC50 (U-87 MG [4]): 13.7 µM; inhibition at 10 µM (U-87 MG [10]): > 50%; IC50 (HeLa [5]): 1.8 µM; inhibition at 10 µM (MGC-803 [11]): > 50%; inhibition at 10 µM (HeLa [12]): > 50%; IC50 (MCF7 [13]): 1.2 µM; inhibition at 10 µM (MKN-45 [14]): > 50%; IC50 at 72 h [6]: 1.6 µM; inhibition at 10 µM (MCF7 [15]): > 50%; IC50 (MKN-45 [7]): 1 µM; IC50 (HCT-116 [8]): 1.9 µM; IC50 (MGC-803 [9]): 5 µM; inhibition at 10 µM (HCT-116 [16]): > 50%
COc1ccc(C2=CC(=O)O/C2=C\c2ccc(C)cc2)cc1 | 94.1 | 101 | 87.3 | 
COc1cc(/C=C2\OC(=O)C=C2c2ccccc2)ccc1O | 99.8 | 102 | 137 | 
O=C1C=C(c2ccccc2)/C(=C/c2ccc(O)cc2)O1 | 92.4 | 87.1 | 87.7 | 
COc1ccc(/C=C2\OC(=O)C=C2c2ccccc2)cc1 | 91.2 | 82.9 | 113 | 
COc1ccc(C2=CC(=O)O/C2=C\c2ccc3ccccc3c2)cc1 | 106 | 83.8 | 98.3 | 
COc1ccc(C2=CC(=O)O/C2=C\c2ccc(Br)cc2)cc1 | 103 | 107 | 107 | 
COc1ccc(C2=CC(=O)O/C2=C\c2ccc(C(C)C)cc2)cc1 | 97.4 | 102 | 85.9 | 
COc1ccc(C2=CC(=O)O/C2=C\c2ccc(C(=O)O)c(O)c2)cc1 | 106 | 40.7 | 62.8 | 
CC(=O)Nc1ccc(/C=C2\OC(=O)C=C2c2ccccc2)cc1 | 90.3 | 92.2 | 87.2 | 
COc1ccc(C2=CC(=O)O/C2=C\c2ccc(O)c(O)c2)cc1 | 51.9 | 26.1 | 31.7 | IC50 (U-87 MG [4]): 23.8 µM; inhibition at 10 µM (U-87 MG [10]): > 50%; IC50 (HeLa [5]): 1.3 µM; inhibition at 10 µM (MGC-803 [11]): > 50%; inhibition at 10 µM (HeLa [12]): > 50%; IC50 (MCF7 [13]): 2.5 µM; inhibition at 10 µM (MKN-45 [14]): > 50%; IC50 at 72 h [6]: 11.3 µM; inhibition at 10 µM (MCF7 [15]): > 50%; IC50 (MKN-45 [7]): 2.8 µM; IC50 (HCT-116 [8]): 3.4 µM; IC50 (MGC-803 [9]): 8.8 µM; inhibition at 10 µM (HCT-116 [16]): > 50%
